Tests used:
Assay in all cases: relative viability (nuclei count vs DMSO), 5 days (fraction); higher = more cells survive
[1] = compound: CC1=CC(=NN1)NC2=CC(=NC(=N2)/C=C/C3=CC=CC=C3)N4CCN(CC4)C + NC(=O)Nc1cc(-c2cccc(F)c2)sc1C(=O)N[C@H]1CCCNC1 [AZD7762] (partner 0.2 µM)
In short: (§1)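 Five library-drug doses in √10 steps were combined with a fixed anchor-drug dose, or a single drug was given alone, by pin tool to lung cancer cell lines in 1536-well plates the day after seeding. Nuclei were stained and counted after 5 days. Relative viability is the nuclei count in treated wells over that in vehicle wells, taken as the median of duplicate plates.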

[2] = compound: CC1=CC(=NN1)NC2=CC(=NC(=N2)/C=C/C3=CC=CC=C3)N4CCN(CC4)C + O=C(c1cc(Cc2n[nH]c(=O)c3ccccc23)ccc1F)N1CCN(C(=O)C2CC2)CC1 [Olaparib] (partner 8 µM)
In short: as §1

[3] = compound: CC1=CC(=NN1)NC2=CC(=NC(=N2)/C=C/C3=CC=CC=C3)N4CCN(CC4)C + Nc1nc2[nH]cc(CCc3ccc(C(=O)N[C@@H](CCC(=O)O)C(=O)O)cc3)c2c(=O)[nH]1 [Pemetrexed] (partner 0.2 µM)
In short: as §1

Obatoclax + Olaparib = compound: COC1=CC(c2cc3ccccc3[nH]2)=N/C1=C\c1[nH]c(C)cc1C [Obatoclax] + O=C(c1cc(Cc2n[nH]c(=O)c3ccccc23)ccc1F)N1CCN(C(=O)C2CC2)CC1 [Olaparib] (partner 8 µM)
In short: as §1

## NCI-H441
[1]; first compound 0.08 µM
  relative viability: 1.17
[1]; first compound 0.253 µM
  relative viability: 1.06
[1]; first compound 0.8 µM
  relative viability: 1.1
[1]; first compound 2.53 µM
  relative viability: 0.728
[1]; first compound 8 µM
  relative viability: 0.152
[2]; first compound 0.08 µM
  relative viability: 0.569
[2]; first compound 0.253 µM
  relative viability: 0.55
[2]; first compound 0.8 µM
  relative viability: 0.503
[2]; first compound 2.53 µM
  relative viability: 0.401
[2]; first compound 8 µM
  relative viability: 0.116
[3]; first compound 0.08 µM
  relative viability: 0.24
[3]; first compound 0.253 µM
  relative viability: 0.25
[3]; first compound 0.8 µM
  relative viability: 0.273
[3]; first compound 2.53 µM
  relative viability: 0.221
[3]; first compound 8 µM
  relative viability: 0.137
Obatoclax + Olaparib; first compound 0.01 µM
  relative viability: 0.63
Obatoclax + Olaparib; first compound 0.03162 µM
  relative viability: 0.6
Obatoclax + Olaparib; first compound 0.1 µM
  relative viability: 0.527
Obatoclax + Olaparib; first compound 0.3162 µM
  relative viability: 0.359
Obatoclax + Olaparib; first compound 1 µM
  relative viability: 0.288

## NCI-H460
[1]; first compound 0.08 µM
  relative viability: 0.6
[1]; first compound 0.253 µM
  relative viability: 0.72
[1]; first compound 0.8 µM
  relative viability: 0.681
[1]; first compound 2.53 µM
  relative viability: 0.372
[1]; first compound 8 µM
  relative viability: 0.0422
[2]; first compound 0.08 µM
  relative viability: 0.38
[2]; first compound 0.253 µM
  relative viability: 0.362
[2]; first compound 0.8 µM
  relative viability: 0.427
[2]; first compound 2.53 µM
  relative viability: 0.147
[2]; first compound 8 µM
  relative viability: 0.025
[3]; first compound 0.08 µM
  relative viability: 0.0607
[3]; first compound 0.253 µM
  relative viability: 0.0584
[3]; first compound 0.8 µM
  relative viability: 0.0607
[3]; first compound 2.53 µM
  relative viability: 0.0513
[3]; first compound 8 µM
  relative viability: 0.0228
Obatoclax + Olaparib; first compound 0.01 µM
  relative viability: 0.422
Obatoclax + Olaparib; first compound 0.03162 µM
  relative viability: 0.408
Obatoclax + Olaparib; first compound 0.3162 µM
  relative viability: 0.339
Obatoclax + Olaparib; first compound 1 µM
  relative viability: 0.14

## NCI-H522
[1]; first compound 0.08 µM
  relative viability: 0.859
[1]; first compound 0.253 µM
  relative viability: 0.934
[1]; first compound 0.8 µM
  relative viability: 0.933
[1]; first compound 2.53 µM
  relative viability: 0.516
[1]; first compound 8 µM
  relative viability: 0.587
[2]; first compound 0.08 µM
  relative viability: 0.64
[2]; first compound 0.253 µM
  relative viability: 0.647
[2]; first compound 0.8 µM
  relative viability: 0.61
[2]; first compound 2.53 µM
  relative viability: 0.472
[2]; first compound 8 µM
  relative viability: 0.319
[3]; first compound 0.08 µM
  relative viability: 0.992
[3]; first compound 0.253 µM
  relative viability: 0.848
[3]; first compound 0.8 µM
  relative viability: 0.957
[3]; first compound 2.53 µM
  relative viability: 0.894
[3]; first compound 8 µM
  relative viability: 0.622
Obatoclax + Olaparib; first compound 0.01 µM
  relative viability: 0.783
Obatoclax + Olaparib; first compound 0.03162 µM
  relative viability: 0.681
Obatoclax + Olaparib; first compound 0.1 µM
  relative viability: 0.694
Obatoclax + Olaparib; first compound 0.3162 µM
  relative viability: 0.621
Obatoclax + Olaparib; first compound 1 µM
  relative viability: 0.56

## NCI-H596
[1]; first compound 0.08 µM
  relative viability: 1.07
[1]; first compound 0.253 µM
  relative viability: 1.14
[1]; first compound 0.8 µM
  relative viability: 1.04
[1]; first compound 2.53 µM
  relative viability: 0.583
[1]; first compound 8 µM
  relative viability: 0.279
[2]; first compound 0.08 µM
  relative viability: 0.729
[2]; first compound 0.253 µM
  relative viability: 0.607
[2]; first compound 0.8 µM
  relative viability: 0.601
[2]; first compound 2.53 µM
  relative viability: 0.412
[2]; first compound 8 µM
  relative viability: 0.24
[3]; first compound 0.08 µM
  relative viability: 0.468
[3]; first compound 0.253 µM
  relative viability: 0.5
[3]; first compound 0.8 µM
  relative viability: 0.456
[3]; first compound 2.53 µM
  relative viability: 0.408
[3]; first compound 8 µM
  relative viability: 0.228
Obatoclax + Olaparib; first compound 0.01 µM
  relative viability: 0.671
Obatoclax + Olaparib; first compound 0.03162 µM
  relative viability: 0.675
Obatoclax + Olaparib; first compound 0.1 µM
  relative viability: 0.552
Obatoclax + Olaparib; first compound 0.3162 µM
  relative viability: 0.492
Obatoclax + Olaparib; first compound 1 µM
  relative viability: 0.458

## NCI-H647
[1]; first compound 0.08 µM
  relative viability: 0.328
[1]; first compound 0.253 µM
  relative viability: 0.598
[1]; first compound 0.8 µM
  relative viability: 0.499
[1]; first compound 2.53 µM
  relative viability: 0.103
[1]; first compound 8 µM
  relative viability: 0.0452
[2]; first compound 0.08 µM
  relative viability: 0.524
[2]; first compound 0.253 µM
  relative viability: 0.521
[2]; first compound 0.8 µM
  relative viability: 0.493
[2]; first compound 2.53 µM
  relative viability: 0.0425
[2]; first compound 8 µM
  relative viability: 0.0194
[3]; first compound 0.08 µM
  relative viability: 0.2
[3]; first compound 0.253 µM
  relative viability: 0.174
[3]; first compound 0.8 µM
  relative viability: 0.168
[3]; first compound 2.53 µM
  relative viability: 0.0748
[3]; first compound 8 µM
  relative viability: 0.0585
Obatoclax + Olaparib; first compound 0.01 µM
  relative viability: 0.633
Obatoclax + Olaparib; first compound 0.03162 µM
  relative viability: 0.539
Obatoclax + Olaparib; first compound 0.1 µM
  relative viability: 0.547
Obatoclax + Olaparib; first compound 0.3162 µM
  relative viability: 0.174
Obatoclax + Olaparib; first compound 1 µM
  relative viability: 0.067

## NCI-H838
[1]; first compound 0.08 µM
  relative viability: 0.963
[1]; first compound 0.253 µM
  relative viability: 1.09
[1]; first compound 0.8 µM
  relative viability: 0.99
[1]; first compound 2.53 µM
  relative viability: 0.782
[1]; first compound 8 µM
  relative viability: 0.623
[2]; first compound 0.08 µM
  relative viability: 0.752
[2]; first compound 0.253 µM
  relative viability: 0.749
[2]; first compound 0.8 µM
  relative viability: 0.564
[2]; first compound 2.53 µM
  relative viability: 0.139
[2]; first compound 8 µM
  relative viability: 0.0822
[3]; first compound 0.08 µM
  relative viability: 0.235
[3]; first compound 0.253 µM
  relative viability: 0.25
[3]; first compound 0.8 µM
  relative viability: 0.213
[3]; first compound 2.53 µM
  relative viability: 0.166
[3]; first compound 8 µM
  relative viability: 0.111
Obatoclax + Olaparib; first compound 0.01 µM
  relative viability: 0.747
Obatoclax + Olaparib; first compound 0.03162 µM
  relative viability: 0.79
Obatoclax + Olaparib; first compound 0.1 µM
  relative viability: 0.792
Obatoclax + Olaparib; first compound 0.3162 µM
  relative viability: 0.577
Obatoclax + Olaparib; first compound 1 µM
  relative viability: 0.255

## NCI-H1355
[1]; first compound 0.08 µM
  relative viability: 0.779
[1]; first compound 0.253 µM
  relative viability: 0.802
[1]; first compound 0.8 µM
  relative viability: 0.778
[1]; first compound 2.53 µM
  relative viability: 0.581
[1]; first compound 8 µM
  relative viability: 0.15
[2]; first compound 0.08 µM
  relative viability: 0.707
[2]; first compound 0.253 µM
  relative viability: 0.813
[2]; first compound 0.8 µM
  relative viability: 0.69
[2]; first compound 2.53 µM
  relative viability: 0.324
[2]; first compound 8 µM
  relative viability: 0.113
[3]; first compound 0.08 µM
  relative viability: 1.04
[3]; first compound 0.253 µM
  relative viability: 1.01
[3]; first compound 0.8 µM
  relative viability: 1.01
[3]; first compound 2.53 µM
  relative viability: 0.902
[3]; first compound 8 µM
  relative viability: 0.546
Obatoclax + Olaparib; first compound 0.01 µM
  relative viability: 0.76
Obatoclax + Olaparib; first compound 0.03162 µM
  relative viability: 0.767
Obatoclax + Olaparib; first compound 0.1 µM
  relative viability: 0.781
Obatoclax + Olaparib; first compound 0.3162 µM
  relative viability: 0.667
Obatoclax + Olaparib; first compound 1 µM
  relative viability: 0.717

## NCI-H1395
[1]; first compound 0.08 µM
  relative viability: 0.399
[1]; first compound 0.253 µM
  relative viability: 0.389
[1]; first compound 0.8 µM
  relative viability: 0.346
[1]; first compound 2.53 µM
  relative viability: 0.315
[1]; first compound 8 µM
  relative viability: 0.332
[2]; first compound 0.08 µM
  relative viability: 0.472
[2]; first compound 0.253 µM
  relative viability: 0.462
[2]; first compound 0.8 µM
  relative viability: 0.445
[2]; first compound 2.53 µM
  relative viability: 0.355
[2]; first compound 8 µM
  relative viability: 0.278
[3]; first compound 0.08 µM
  relative viability: 0.875
[3]; first compound 0.253 µM
  relative viability: 0.814
[3]; first compound 0.8 µM
  relative viability: 0.714
[3]; first compound 2.53 µM
  relative viability: 0.357
[3]; first compound 8 µM
  relative viability: 0.233
Obatoclax + Olaparib; first compound 0.01 µM
  relative viability: 0.454
Obatoclax + Olaparib; first compound 0.03162 µM
  relative viability: 0.418
Obatoclax + Olaparib; first compound 0.1 µM
  relative viability: 0.444
Obatoclax + Olaparib; first compound 0.3162 µM
  relative viability: 0.529
Obatoclax + Olaparib; first compound 1 µM
  relative viability: 0.332

Reference: the supplement of paper PMC10307832
